Common to all, as to assay: DTP human tumour cell line panel, 48 h
Assay [1] has as its system XF498.
Assay [2] concerns DMS-273.
The subject of assay [3] is SNB-78.
The subject of assay [4] is DLD-1.
Assay [5] concerns RXF 631.
In assay [6] the test system is KM-20L2.
Assay [7] deals with HOP-18.
Assay [8] relates to DMS-114.
Assay [9] concerns BT-549.

“And” between values parts separate entries of the source, which are not always exact repeats. Identical values can stand only once.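 Tested at 5 concentrations; 48 h exposure; 96-well plates; endpoints linearly interpolated, else capped at highest concentration. The concentration for 50% growth inhibition is given as GI50.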 The source made the active and inactive calls. Cut-off read from the data, not from the text of the source: active = GI50 up to about 1.1 µM and inactive = higher.

For orientation: GI50 means the concentration that inhibits growth by half.

As for `COC(=O)/C(=C/c1ccc(OC)cc1)C(C(=O)O)=C1CCCC1`, the GI50 in assay [1] is 11.7 µM (inactive); in assay [2], > 100 µM (inactive); in assay [3], > 100 µM (inactive); in [4], > 100 µM (inactive); in assay [5], > 100 µM (inactive); in [6], > 100 µM (inactive).

Turning to `CC1=C(C(=O)CC(=O)C(=O)Nc2ccc(C)c(C)c2)Sc2ccccc2N1`, the GI50 in assay [1], in assay [7], in assay [2], in [3], in assay [4] and in assay [8] was > 100 µM (inactive) each time. In addition, the GI50 in assay [6] is > 100 µM (inactive).

Regarding `CC(=O)/C=C1\CC(=O)Nc2ccccc2N1`, the GI50 in assay [3], in assay [4], in assay [8] and in assay [6] was > 100 µM (inactive) in each case.

Turning to `CCc1cccc(C(C)C)c1NC(=O)C(=O)C(C(=O)C(=O)OC)c1nc2ccccc2nc1O` (stereo unspecified), the GI50 in assay [1], in [7], in assay [2], in assay [3], in assay [8] and in assay [5] was > 100 µM (inactive) throughout. Moreover, the GI50 in [6] was > 100 µM (inactive).

On to `NC(CCc1nc(-c2ccccc2)cs1)C(=O)O` (stereo unspecified), for which the GI50 in assay [7], in assay [2], in assay [3], in assay [4] and in assay [8] was > 100 µM (inactive) throughout.

`Cc1ccc2c(c1)CNc1ccc(C)cc1CN2`: the GI50 in [1], in assay [7], in [2], in [3], in assay [4] and in [8] was > 100 µM (inactive) throughout.

As for `CC(/C=C/C=C\C=C\C=C(/C)C(=O)NC(C)CO)=C\C(C)C(O)/C(C)=C/C(C)CCc1ccccc1` (stereo unspecified), the GI50 in assay [1] was 7.71 µM (inactive); in [7], 10.8 µM (inactive); in [9] it was 15.2 µM (inactive); in assay [2] it was 1.87 µM (inactive); in assay [3] it was 8.04 µM (inactive); in assay [4], 13.7 µM (inactive). For the same compound, the values for the GI50 in assay [8] and in assay [6] were < 0.01 µM (active) and 11.1 µM (inactive), respectively.

Take `CCOC(=O)C1(C/C=C(/C)Cl)CCCC1=O` (stereo unspecified): the GI50 in [1] is > 100 µM (inactive); in [7] it was > 100 µM (inactive); in assay [2] it was 23 µM (inactive); in assay [4] it was 71.3 µM (inactive); in assay [8] it was 71.6 µM (inactive); in [5] it was 95.1 µM (inactive). The GI50 in assay [6] is 47.6 µM (inactive).

Turning to `CCOc1ccc(NC(=O)CC#N)cc1`, the GI50 in assay [1], in assay [7], in assay [2], in [3], in [4] and in assay [5] was > 100 µM (inactive) in each case. The GI50 in assay [6] was > 100 µM (inactive).

Consider `CC1CC(C2=CC=CCS2)=Nc2ccccc2S1` (stereo unspecified), for which the GI50 is > 100 µM (inactive) in [1]; > 100 µM (inactive) in assay [7]; > 100 µM (inactive) in [2]; > 100 µM (inactive) in assay [3]; 70 µM (inactive) in assay [4]; > 100 µM (inactive) in [5]. Further, in assay [6], the GI50 is > 100 µM (inactive).

As for `O=C1C(Cl)C(c2ccccc2)N1n1cnc2ccccc2c1=O` (stereo unspecified), the GI50 in assay [1] is > 100 µM (inactive); in assay [7], 26.5 µM (inactive); in assay [2], > 100 µM (inactive); in assay [3] it was > 100 µM (inactive); in assay [4], > 100 µM (inactive); in assay [8] it was > 100 µM (inactive). For the same compound, in assay [6], the GI50 was > 100 µM (inactive).

As to `CC(C)=CCOc1ccc(-c2coc3cc4c(c(O)c3c2=O)C=CC(C)(C)O4)cc1`, the GI50 in [1] was 15.9 µM (inactive); in assay [3], 59.3 µM (inactive); in assay [4] it was 50.7 µM (inactive); in [8] it was 18.2 µM (inactive); in assay [6] it was > 100 µM (inactive).

As to `CCCCCCCCCCCCCCCCCCN(C)C(COC)COP(=O)([O-])OCC[N+](C)(C)C` (stereo unspecified), the GI50 in assay [1] is 18.6 µM (inactive); in [7], 6.08 µM (inactive); in [9], 9.18 µM (inactive); in [2], 1.38 µM (inactive); in [3], 4.5 µM (inactive); in [4] it was 3.48 µM (inactive). For the same compound, the results for the GI50 in assay [5] and in assay [6] were 6.85 µM (inactive) and 2.08 µM (inactive), respectively.

As for `CCOc1ccccc1NC(=O)C(=O)Cc1nc2ccccc2s1`, the GI50 in assay [1], in assay [7], in assay [2], in assay [3], in assay [4] and in assay [8] was > 100 µM (inactive) each time. The GI50 in assay [5] and in assay [6] was > 100 µM (inactive) throughout.

With `O=C1/C(=C/c2cc(O)c(O)c(O)c2)Oc2cc(O)cc(OC3OC(CO)C(O)C(O)C3O)c21` (stereo unspecified), the GI50 in assay [7] was 53.5 µM (inactive); in [2], 1.85 µM (inactive); in assay [3], 19.4 µM (inactive); in assay [4] it was 18.7 µM (inactive); in [8] it was 25.2 µM (inactive); in assay [5], 1.81 µM (inactive). In addition, the GI50 in assay [6] was 21.2 µM (inactive).

As to `COc1cc2c(cc1OC)C1C=NC(C(=O)O)(C2)c2ccccc21` (stereo unspecified), the GI50 in [2], in [3], in assay [4], in [8], in [5] and in [6] was > 100 µM (inactive) in each case.

Regarding `Cc1cccc(C)c1NC(=O)/C(=N/NC(N)=S)C(C)C(=O)c1ccc(Cl)cc1` (stereo unspecified), the GI50 in assay [1], in assay [7], in [2], in assay [3], in [4] and in assay [8] was > 100 µM (inactive) in each case. In addition, the GI50 in assay [5] and in assay [6] was > 100 µM (inactive) throughout.

For `COC(=O)C(CCS(=O)(=O)CC(=O)C(=O)Nc1cccc(C(C)=O)c1)C(=O)OC`, the GI50 in assay [1] is > 100 µM (inactive); in [7], > 100 µM (inactive); in assay [2], > 100 µM (inactive); in assay [3], > 100 µM (inactive); in assay [4] it was > 56.2 µM (inactive); in assay [8] it was > 39.4 µM (inactive). The GI50 in [5] and in [6] was > 100 µM (inactive) each time.

For `Cc1nc2c3c(ccc2nc1O)C(=O)c1ccccc1C3=O`, the GI50 in assay [1] was > 100 µM (inactive); in assay [7], 66.7 µM (inactive); in assay [4], 31.8 µM (inactive); in assay [8], 44.8 µM (inactive); in assay [6] it was > 100 µM (inactive).

As for `CN1C(=O)C(=CN)C(=O)N(C)C1=O`, the GI50 in [1], in assay [7], in assay [3], in assay [4], in assay [8] and in assay [6] was > 100 µM (inactive) in each case.

Regarding `COC1OC(C(=O)CP(=O)(OC)OC)C(OCc2ccccc2)C(OCc2ccccc2)C1OCc1ccccc1` (stereo unspecified), the GI50 in assay [9] is 17.9 µM (inactive) and 19.5 µM (inactive).

Take `Cc1cc2c(cc1Cl)SC(N/N=C(\N)c1ccc(Cl)cc1)=NS2(=O)=O`: the GI50 in [9] is 46.7 µM (inactive).

Turning to `O=[PH](O)c1cc2c3ccccc3ccc2c2ccccc12`, the GI50 in assay [1] is 67.3 µM (inactive); in [7], > 100 µM (inactive); in assay [2], > 100 µM (inactive); in assay [3] it was > 100 µM (inactive); in [4], > 100 µM (inactive); in assay [8], > 100 µM (inactive). Moreover, in assay [6], the GI50 is > 100 µM (inactive).

On to `Cc1cs/c(=N\C(P(=O)(O)O)P(=O)(O)O)n1C`, for which the GI50 in assay [9] was > 100 µM (inactive).

For `C=CCc1cc(-c2cc(CC=C)c(O)c(CNCCCl)c2)cc(CNCCCl)c1O`, the GI50 in assay [3] was 39.3 µM (inactive); in assay [4], 21.5 µM (inactive); in assay [8] it was 21.1 µM (inactive); in assay [6], 17.5 µM (inactive).

For `COc1ccc(N2C(=O)C3c4[nH]c5cccc(Cl)c5c4C4CCC(C(C)(C)C)CC4C3C2=O)cc1` (stereo unspecified), the GI50 in assay [9] is > 100 µM (inactive).

As to `COC(=O)[C@@H]1N2C(=S)N(c3ccccc3)C(=O)[C@H]2SC1(C)C`, the GI50 in assay [9] is > 100 µM (inactive).

As for `CC(C)N(C(=O)C12C3C4C5C3C1(C(=O)N(C(C)C)C(C)C)C5C42)C(C)C` (stereo unspecified), the GI50 is > 100 µM (inactive) in assay [1]; > 100 µM (inactive) in assay [7]; > 41.7 µM (inactive) in [2]; > 100 µM (inactive) in assay [3]; > 45.3 µM (inactive) in assay [4]; > 44.5 µM (inactive) in [8]. Moreover, in assay [6], the GI50 was > 100 µM (inactive).

For the compound `COC(=O)C1Cc2c([nH]c3ccccc23)C(C2CCCCC2)N1` (stereo unspecified), the GI50 in assay [7], in assay [2], in assay [4], in [8], in [5] and in assay [6] was > 100 µM (inactive) in each case.

Regarding `CC(=O)c1cc2c(s1)C(=O)c1ccsc1C2=O`, the GI50 in assay [9] is 0.182 µM (active).

`CCCc1cc(OC(=O)c2c(O)cc(OC)cc2CCC)cc(O)c1C(=O)O`: the GI50 in assay [1] was 25.9 µM (inactive); in [2], 32.1 µM (inactive); in [3], 25 µM (inactive); in assay [4], 36.5 µM (inactive); in assay [8], 19.6 µM (inactive); in [5] it was 26.3 µM (inactive). The GI50 in [6] is 37.4 µM (inactive).

With `CCCC[C@H]1CCN2C[C@@H](O)[C@@H](O)[C@H]2[C@@H]1O`, in assay [9], the GI50 was > 100 µM (inactive).

For the compound `[N-]=[N+]=Nc1cc(=O)[nH]nc1-c1ccccc1`, in assay [9], the GI50 was > 100 µM (inactive).

The values above are taken from ChEMBL document CHEMBL1201862, “PubChem BioAssay data set” (2004).
